Laboratory results from ChEMBL document CHEMBL1201862, “PubChem BioAssay data set” (2004).
Where a name gives a salt, the structure may show the parent alone. Activity calls are given as the source filed them.

What was measured:
Vero = test: viability of Vero cells under compound – cytotoxicity control for flavivirus capping enzyme inhibitors (AID 588742); format: functional; conditions: Chlorocebus sabaeus
[1] = target: T1, RNA-binding protein pos-1 (Caenorhabditis elegans, UniProt G5EF15); test: disruptors of C. elegans POS-1 RNA interaction – biochemical, fluorescence polarization, dose response (AID 1964);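 further: purified POS-1 fused to maltose binding protein made in E. coli; potency of compounds blocking POS-1 binding to fluorescent RNA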
T1 sequence (G5EF15 whole entry): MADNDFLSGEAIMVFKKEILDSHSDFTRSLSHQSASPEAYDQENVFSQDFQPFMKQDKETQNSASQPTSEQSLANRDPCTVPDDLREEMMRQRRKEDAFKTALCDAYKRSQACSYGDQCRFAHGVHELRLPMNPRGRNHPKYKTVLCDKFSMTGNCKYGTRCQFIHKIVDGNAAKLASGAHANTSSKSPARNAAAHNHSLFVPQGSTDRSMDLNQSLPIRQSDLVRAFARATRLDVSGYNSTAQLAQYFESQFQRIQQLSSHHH

[2] = target: T2, Zinc finger protein mex-5 (Caenorhabditis elegans, UniProt Q9XUB2); test: potency of MEX-5 RNA-binding blockers – biochemical, C. elegans, fluorescence polarization, dose response (AID 1960)
T2 sequence (Q9XUB2 whole entry): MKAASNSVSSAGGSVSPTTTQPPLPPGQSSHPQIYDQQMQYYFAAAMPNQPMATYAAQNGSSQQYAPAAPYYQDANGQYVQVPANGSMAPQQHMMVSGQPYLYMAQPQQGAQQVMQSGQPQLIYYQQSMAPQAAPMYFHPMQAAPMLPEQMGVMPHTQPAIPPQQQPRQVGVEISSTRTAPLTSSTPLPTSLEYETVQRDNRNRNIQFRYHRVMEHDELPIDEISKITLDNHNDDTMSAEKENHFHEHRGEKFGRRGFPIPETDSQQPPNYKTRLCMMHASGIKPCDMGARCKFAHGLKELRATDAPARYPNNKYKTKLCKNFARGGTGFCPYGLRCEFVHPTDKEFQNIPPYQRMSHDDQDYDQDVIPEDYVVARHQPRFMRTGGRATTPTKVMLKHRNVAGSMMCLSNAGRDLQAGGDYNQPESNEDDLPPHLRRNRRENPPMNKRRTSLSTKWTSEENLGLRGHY

[3] = target: T3, Endoribonuclease toxin MazF (Escherichia coli K-12, UniProt P0AE70); test: activation of MazEF endoribonuclease cleavage – biochemical, fluorescence, single-stranded RNA substrate, uHTS hits, dose response (AID 588481); format: functional
T3 sequence (P0AE70 whole entry): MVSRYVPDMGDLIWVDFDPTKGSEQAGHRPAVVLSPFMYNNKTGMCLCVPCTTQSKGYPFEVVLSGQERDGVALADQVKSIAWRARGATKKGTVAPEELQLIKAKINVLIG

[4] = target: T3, Endoribonuclease toxin MazF; test: substrate-only fluorescence increase artefacts – biochemical, single-stranded RNase substrate, counter-screen for MazEF activator project, dose response (AID 588502); format: functional
[5] = target: Luciferin 4-monooxygenase (Photinus pyralis, UniProt P08659); test: inhibition of purified Photinus pyralis luciferase – biochemical, luminescence, dose response (AID 1891)
Luciferin 4-monooxygenase, sequence (P08659 whole entry): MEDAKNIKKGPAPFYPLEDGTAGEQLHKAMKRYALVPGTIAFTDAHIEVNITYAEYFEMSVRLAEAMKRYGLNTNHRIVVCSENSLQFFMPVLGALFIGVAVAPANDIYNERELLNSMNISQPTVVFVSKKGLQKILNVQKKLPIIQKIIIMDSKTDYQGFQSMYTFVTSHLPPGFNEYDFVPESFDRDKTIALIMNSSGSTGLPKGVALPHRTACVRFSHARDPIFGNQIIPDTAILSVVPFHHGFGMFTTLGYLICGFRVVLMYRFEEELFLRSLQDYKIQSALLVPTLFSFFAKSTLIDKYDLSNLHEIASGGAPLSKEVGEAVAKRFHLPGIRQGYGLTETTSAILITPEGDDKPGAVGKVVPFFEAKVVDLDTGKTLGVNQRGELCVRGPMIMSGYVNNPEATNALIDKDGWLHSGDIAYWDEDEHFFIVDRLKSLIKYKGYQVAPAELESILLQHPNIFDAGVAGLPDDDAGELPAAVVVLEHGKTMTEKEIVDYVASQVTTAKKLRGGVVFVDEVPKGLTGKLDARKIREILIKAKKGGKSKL

[6] = Luminescence Cell-Based Dose Confirmation HTS to Identify Inhibitors of Platelet Dense Granule Release. [Related pubchem assays: 1663 (Primary HTS), 1678 (Summary of Project)]; format: functional
[7] = viability of PTEN-deleted HCT116 cells – cell-based, HCT116 PTEN knockout, dose response (AID 1047); format: functional;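 further: HCT116 colon tumor cells with PTEN knocked out; cells exposed to compound for 60 hours before readout; potency for loss of cell viability measured by luminescence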
[8] = viability of HCT116 lacking mutant beta-catenin – cell-based, human colon tumor, dose response (AID 1045); format: functional;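 further: HCT116 colon tumor cells with beta catenin knocked out; cells exposed to compound for 60 hours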
INS1 = test: INS-1E survival protection against cytokine death – cell-based, luminescence, retest, dose response (AID 449756); format: functional; conditions: Rattus norvegicus;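 further: cell death triggered by IL-1 beta plus TNF-alpha plus IFN-gamma mixture; protective hits raise ATP signal compared with cytokine alone wells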
Melanocortin receptor 4 = Melanocortin receptor 4 (Homo sapiens, UniProt P32245); format: functional, cell-based;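 further: Cell-based assay with luminescence read-out, confirmatory dose-response testing for agonist activity of biased ligands at MC4R; human U2OS cells with tagged receptor and beta-arrestin; potency of agonists that increase receptor coupling to beta-arrestin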
Melanocortin receptor 4, sequence (P32245 whole entry): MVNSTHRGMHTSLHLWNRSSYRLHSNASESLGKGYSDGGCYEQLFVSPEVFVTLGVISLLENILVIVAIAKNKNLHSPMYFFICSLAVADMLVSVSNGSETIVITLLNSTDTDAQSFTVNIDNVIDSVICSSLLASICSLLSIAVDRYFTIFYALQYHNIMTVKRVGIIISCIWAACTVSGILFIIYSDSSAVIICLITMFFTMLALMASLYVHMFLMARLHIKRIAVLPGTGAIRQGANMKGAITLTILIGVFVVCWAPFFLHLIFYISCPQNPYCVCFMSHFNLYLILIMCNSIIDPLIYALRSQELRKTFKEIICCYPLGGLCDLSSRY

[9] = target: T4, Sentrin-specific protease 8 (Homo sapiens, UniProt Q96LD8); test: inhibition of human SENP8 cleavage activity – biochemical, luminescence, SAR follow-up (AID 504501); format: functional
T4 sequence (Q96LD8 whole entry): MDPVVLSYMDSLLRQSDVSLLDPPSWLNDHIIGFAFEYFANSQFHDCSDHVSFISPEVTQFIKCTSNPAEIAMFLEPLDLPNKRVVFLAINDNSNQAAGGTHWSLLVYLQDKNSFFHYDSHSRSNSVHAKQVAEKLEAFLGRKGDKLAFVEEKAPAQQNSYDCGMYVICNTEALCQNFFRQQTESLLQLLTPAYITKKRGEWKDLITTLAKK

Caspase-3 = target: T5, Caspase-3 (Homo sapiens, UniProt P42574); test: SAR Analysis of small molecule inhibitors of Sentrin-specific proteases (SENPs) using a Caspase-3 Selectivity assay. [Related pubchem assays (depositor defined):AID2540, AID2599, AID434973, AID489001]; format: functional
T5 sequence (P42574 whole entry): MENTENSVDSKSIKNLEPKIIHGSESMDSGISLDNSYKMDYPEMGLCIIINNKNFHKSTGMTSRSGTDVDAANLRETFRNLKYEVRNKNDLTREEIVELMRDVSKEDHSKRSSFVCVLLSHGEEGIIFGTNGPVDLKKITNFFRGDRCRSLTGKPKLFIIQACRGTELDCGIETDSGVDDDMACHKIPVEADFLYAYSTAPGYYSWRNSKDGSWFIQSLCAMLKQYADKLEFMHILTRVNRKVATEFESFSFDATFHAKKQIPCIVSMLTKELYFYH

[10] = target: T6, Sentrin-specific protease 6 (Homo sapiens, UniProt Q9GZR1); test: SAR Analysis of small molecule inhibitors of Sentrin-specific protease 6 (SENP6) using a Luminescent assay. [Related pubchem assays (depositor defined):AID2582, AID2599]; format: functional
T6 sequence (Q9GZR1 whole entry): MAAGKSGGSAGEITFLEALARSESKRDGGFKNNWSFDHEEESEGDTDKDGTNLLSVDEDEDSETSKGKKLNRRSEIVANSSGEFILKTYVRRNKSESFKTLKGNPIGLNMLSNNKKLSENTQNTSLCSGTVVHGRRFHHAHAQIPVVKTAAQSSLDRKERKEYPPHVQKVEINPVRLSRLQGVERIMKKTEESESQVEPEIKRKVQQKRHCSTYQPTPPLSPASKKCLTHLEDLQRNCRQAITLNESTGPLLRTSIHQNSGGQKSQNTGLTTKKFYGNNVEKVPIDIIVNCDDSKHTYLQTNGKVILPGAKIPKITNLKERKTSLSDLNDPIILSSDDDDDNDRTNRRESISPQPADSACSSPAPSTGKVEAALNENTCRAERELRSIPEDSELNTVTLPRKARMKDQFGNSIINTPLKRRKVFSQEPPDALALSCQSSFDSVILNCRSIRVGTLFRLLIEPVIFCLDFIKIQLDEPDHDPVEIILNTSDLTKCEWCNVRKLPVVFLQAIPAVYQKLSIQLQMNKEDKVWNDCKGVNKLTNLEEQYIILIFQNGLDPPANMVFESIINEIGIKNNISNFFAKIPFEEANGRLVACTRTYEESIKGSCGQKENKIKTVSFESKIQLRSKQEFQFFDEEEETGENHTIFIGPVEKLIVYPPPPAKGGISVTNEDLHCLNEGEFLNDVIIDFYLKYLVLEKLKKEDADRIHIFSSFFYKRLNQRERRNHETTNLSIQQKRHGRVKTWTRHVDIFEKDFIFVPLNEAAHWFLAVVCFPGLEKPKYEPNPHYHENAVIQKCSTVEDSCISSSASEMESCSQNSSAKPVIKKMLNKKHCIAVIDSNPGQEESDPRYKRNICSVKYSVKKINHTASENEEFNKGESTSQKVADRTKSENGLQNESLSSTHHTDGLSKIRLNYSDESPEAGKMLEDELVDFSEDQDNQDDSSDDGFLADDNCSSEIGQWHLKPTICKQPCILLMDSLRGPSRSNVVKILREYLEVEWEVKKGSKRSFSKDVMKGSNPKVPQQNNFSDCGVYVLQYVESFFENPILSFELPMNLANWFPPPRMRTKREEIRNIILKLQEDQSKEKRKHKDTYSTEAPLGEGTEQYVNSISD

[11] = target: T7, Sentrin-specific protease 7 (Homo sapiens, UniProt Q9BQF6); test: inhibition of human SENP7 cleavage activity – biochemical, luminescence, SAR follow-up (AID 504497); format: functional
T7 sequence (Q9BQF6 whole entry): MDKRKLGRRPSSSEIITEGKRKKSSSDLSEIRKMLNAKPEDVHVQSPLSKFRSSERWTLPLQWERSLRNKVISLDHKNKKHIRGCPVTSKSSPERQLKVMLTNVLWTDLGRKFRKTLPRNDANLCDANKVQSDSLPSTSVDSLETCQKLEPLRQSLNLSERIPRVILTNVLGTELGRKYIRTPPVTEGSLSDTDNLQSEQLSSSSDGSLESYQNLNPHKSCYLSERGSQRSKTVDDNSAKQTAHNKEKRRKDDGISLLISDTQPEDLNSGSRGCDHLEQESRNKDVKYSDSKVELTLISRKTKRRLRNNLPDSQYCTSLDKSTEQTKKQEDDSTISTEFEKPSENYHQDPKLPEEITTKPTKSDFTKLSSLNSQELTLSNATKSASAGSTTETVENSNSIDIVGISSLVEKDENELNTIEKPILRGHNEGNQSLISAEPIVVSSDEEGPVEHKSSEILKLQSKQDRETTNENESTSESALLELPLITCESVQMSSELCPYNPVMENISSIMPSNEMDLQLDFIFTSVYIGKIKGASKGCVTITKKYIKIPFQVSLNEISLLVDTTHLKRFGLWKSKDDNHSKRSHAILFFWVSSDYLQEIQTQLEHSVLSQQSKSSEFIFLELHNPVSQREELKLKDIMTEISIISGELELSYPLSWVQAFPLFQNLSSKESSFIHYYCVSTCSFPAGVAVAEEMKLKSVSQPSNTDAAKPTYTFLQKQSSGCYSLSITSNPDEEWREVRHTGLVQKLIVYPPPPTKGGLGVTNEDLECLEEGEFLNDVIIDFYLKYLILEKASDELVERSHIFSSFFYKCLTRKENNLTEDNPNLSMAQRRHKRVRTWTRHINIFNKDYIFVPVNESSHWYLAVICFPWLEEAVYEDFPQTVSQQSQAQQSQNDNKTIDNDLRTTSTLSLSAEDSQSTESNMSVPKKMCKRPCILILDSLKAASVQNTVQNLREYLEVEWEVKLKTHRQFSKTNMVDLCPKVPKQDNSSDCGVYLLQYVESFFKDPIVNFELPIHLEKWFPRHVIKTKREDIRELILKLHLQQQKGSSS

HEK293 = test: EBV LMP1 TES2 canonical NF-kB signalling blockers – cell-based, HEK293, luciferase, cherry-pick, dose response (AID 588343); format: functional; conditions: Homo sapiens
[12] = target: 26S proteasome non-ATPase regulatory subunit 14 (Homo sapiens, UniProt O00487); test: inhibition of proteasome subunit RPN11 – biochemical, fluorescence polarization, uHTS hits, confirmation (AID 602368); format: functional
26S proteasome non-ATPase regulatory subunit 14, sequence (O00487 whole entry): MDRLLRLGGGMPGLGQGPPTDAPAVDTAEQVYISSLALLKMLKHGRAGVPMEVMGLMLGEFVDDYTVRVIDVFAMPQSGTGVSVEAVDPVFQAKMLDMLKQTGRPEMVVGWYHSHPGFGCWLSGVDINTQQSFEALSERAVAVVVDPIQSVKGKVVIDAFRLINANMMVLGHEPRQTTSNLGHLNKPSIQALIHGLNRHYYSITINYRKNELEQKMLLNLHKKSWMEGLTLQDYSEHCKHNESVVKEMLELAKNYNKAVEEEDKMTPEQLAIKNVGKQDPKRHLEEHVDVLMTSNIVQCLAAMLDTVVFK

[13] = target: 72 kDa type IV collagenase (Homo sapiens, UniProt P08253); test: Dose Response validation of uHTS RPN11 inhibitor hits using a MMP-2 Fluorescence assay.; format: functional
72 kDa type IV collagenase, sequence (P08253 whole entry): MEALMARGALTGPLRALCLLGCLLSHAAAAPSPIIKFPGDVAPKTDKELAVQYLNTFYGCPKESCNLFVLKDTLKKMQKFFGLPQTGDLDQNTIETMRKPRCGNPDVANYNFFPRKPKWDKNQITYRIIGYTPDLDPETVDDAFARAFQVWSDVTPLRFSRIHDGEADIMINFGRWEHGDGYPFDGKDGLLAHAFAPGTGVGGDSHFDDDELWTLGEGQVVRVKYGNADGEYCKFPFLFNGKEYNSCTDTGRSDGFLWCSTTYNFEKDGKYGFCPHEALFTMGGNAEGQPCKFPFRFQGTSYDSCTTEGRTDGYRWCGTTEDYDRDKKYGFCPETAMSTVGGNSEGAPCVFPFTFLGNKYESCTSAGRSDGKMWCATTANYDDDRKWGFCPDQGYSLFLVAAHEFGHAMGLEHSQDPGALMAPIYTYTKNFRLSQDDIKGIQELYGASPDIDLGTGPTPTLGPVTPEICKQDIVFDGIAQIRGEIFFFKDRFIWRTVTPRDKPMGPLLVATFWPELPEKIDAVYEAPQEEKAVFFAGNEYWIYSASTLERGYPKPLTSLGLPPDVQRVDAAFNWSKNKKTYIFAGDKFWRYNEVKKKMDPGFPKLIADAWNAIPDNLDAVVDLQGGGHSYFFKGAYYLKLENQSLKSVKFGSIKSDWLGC

Prothrombin = Prothrombin (Bos taurus, UniProt P00735); test: thrombin protease inhibitors – biochemical, fluorescence polarization, uHTS hits, dose response (AID 602369); format: functional
cells = format: functional, cell-based
[14] = target: T8, Nuclear receptor subfamily 0 group B member 1 (Homo sapiens, UniProt P51843); format: functional, cell-based;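 further: HEK293T cells transfected with SF-1 and DAX-1 plus StAR promoter luciferase reporter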
T8 sequence (P51843 whole entry): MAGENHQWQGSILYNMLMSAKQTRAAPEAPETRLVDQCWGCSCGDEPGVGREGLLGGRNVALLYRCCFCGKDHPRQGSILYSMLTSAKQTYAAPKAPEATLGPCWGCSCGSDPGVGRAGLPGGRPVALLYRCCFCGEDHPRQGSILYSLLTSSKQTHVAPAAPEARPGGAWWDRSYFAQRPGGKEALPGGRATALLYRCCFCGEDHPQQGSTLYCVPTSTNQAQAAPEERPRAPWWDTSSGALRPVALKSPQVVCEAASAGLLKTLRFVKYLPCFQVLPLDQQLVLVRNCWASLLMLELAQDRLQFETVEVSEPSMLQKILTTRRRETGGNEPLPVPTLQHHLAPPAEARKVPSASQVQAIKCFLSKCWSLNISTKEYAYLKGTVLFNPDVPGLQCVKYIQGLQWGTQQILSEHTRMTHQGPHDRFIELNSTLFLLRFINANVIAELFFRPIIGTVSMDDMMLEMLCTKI

With `CN1CCN(C(c2ccccc2)c2ccc(Cl)cc2)CC1` (stereo not given) [CHLORCYCLIZINE HYDROCHLORIDE] as the compound, how does the CC50 (Vero) read?
Its CC50 is > 40 µM (active).

Which results are given for `COc1ccc2c(c1)c1nc3ccccc3nc1n2CCCN1C(=O)c2ccccc2C1=O`?
EC50 [1]: 32.7 µM (active); EC50 [2]: 73.9 µM (inconclusive); EC50 [3]: > 99 µM (inactive); EC50 [4]: > 99 µM (inactive)

With `CCC(C)c1ccc(NC(S)=NC2CCN(Cc3ccccc3)CC2)cc1` (stereo not given) as the compound, how does the EC50 [5] read?
Its EC50 is > 112 µM (not active).

What about the EC50 [6] of the same compound?
The EC50 was > 112 µM (not active).

And the EC50 [7]?
The EC50 was 13.5 µM (active).

And the EC50 [8]?
Its EC50 is 14.2 µM (active).

And the AC50 (INS1)?
Its AC50 is 6.84 µM (active).

What about the EC50 (Melanocortin receptor 4) of the same compound?
Its EC50 is > 9.91 µM (active).

What does the source list for `O=[N+]([O-])c1ccc(-c2nc(/C=C/c3ccc(F)cc3)no2)cc1`?
IC50 [9]: > 99 µM (inactive); IC50 (Caspase-3): > 99 µM (inactive); IC50 [10]: > 99 µM (inactive); IC50 [11]: > 99 µM (inactive)

With `CCc1cccc2c(C(=O)CN3C(=O)c4ccccc4C3=O)c[nH]c12` as the compound, how does the IC50 [9] read?
Its IC50 is > 99 µM (inactive).

What about the IC50 (Caspase-3) of the same compound?
Its IC50 is > 99 µM (inactive).

What about the IC50 [10] of the same compound?
Its IC50 is > 99 µM (inactive).

What about the IC50 [11] of the same compound?
Its IC50 is > 99 µM (inactive).

Which AC50 (HEK293) does the source give for `Cc1ccsc1/C=C/c1ccc2ccccc2n1` here?
The AC50 was 15.8 µM (active).

And the IC50 [12]?
Its IC50 is 23.4 µM (active).

What about the IC50 [13] of the same compound?
The IC50 was > 100 µM (inactive).

And the IC50 (Prothrombin)?
Its IC50 is 29.3 µM (active).

And the IC50 (cells)?
Its IC50 is > 67.5 µM (inactive).

What about the IC50 [14] of the same compound?
Its IC50 is > 278 nM (active).
